According to patent publication US10167262B2, “Herbicidal substituted 3-arylpyrazoles” (FMC CORPORATION, priority 2014, dated 2019):

What was measured:
Format in all cases: in vivo
[1] = test system: giant foxtail (Setaria faberii); assay: Test C pre-/postemergence greenhouse test, plant response rating 0-100
Text: (§1) Seeds of plant species selected from blackgrass (Alopecurus myosuroides), Italian ryegrass (Lolium multiflorum), winter wheat (Triticum aestivum), galium (catchweed bedstraw, Galium aparine), corn (Zea mays), large (Lg) crabgrass (Digitaria sanguinalis), giant foxtail (Setaria faberii), johnsongrass (Sorghum halepense), lambsquarters (Chenopodium album), morningglory (Ipomoea coccinea), yellow nutsedge (Cyperus esculentus), pigweed (Amaranthus retroflexus), ragweed (common ragweed, Ambrosia elatior), soybean (Glycine max), barnyardgrass (Echinochloa crus-galli), oilseed rape (Brassica napus), waterhemp (common waterhemp, Amaranthus rudis), and velvetleaf (Abutilon theophrasti) were planted into a blend of loam soil and sand and treated preemergence with test chemicals formulated in a non-phytotoxic solvent mixture which included a surfactant.
(§2) At the same time, plants selected from these crop and weed species and also winter barley (Hordeum vulgare), bermudagrass (Cynodon dactylon), downy bromegrass (Bromus tectorum), canarygrass (Phalaris minor), cocklebur (common cocklebur, Xanthium strumarium), woolly cupgrass (Eriochloa villosa), deadnettle (henbit deadnettle, Lamium amplexicaule), green foxtail (Setaria viridis), goosegrass (Eleusine indica), surinam grass (Brachiaria decumbens), windgrass (Apera spica-venti), chickweed (common chickweed, Stellaria media), kochia (Kochia scoparia), and wild oat (Avena fatua), were planted in pots containing Redi-Earth® planting medium (Scotts Company, 14111 Scottslawn Road, Marysville, Ohio 43041) comprising spaghnum peat moss, vermiculite, wetting agent and starter nutrients and treated with postemergence applications of test chemicals formulated in the same manner. Plants ranged in height from 2 to 18 cm (1- to 4-leaf stage) for postemergence treatments. Treated plants and controls were maintained in a greenhouse for 13 to 15 days, after which time all species were compared to controls and visually evaluated. Plant response ratings, summarized in Table C, are based on a scale of 0 to 100 where 0 is no effect and 100 is complete control. A dash (-) response means no test result.

[2] = test system: johnsongrass (Sorghum halepense); assay: as above
Text: as §1, §2

[3] = test system: winter wheat (Triticum aestivum); assay: as above
Text: as §1, §2

kochia (Kochia scoparia) = assay: Test C postemergence greenhouse test, plant response rating 0-100; conditions: for Plant response rating, Kochia: scale 0 to 100
Method in brief: (§3)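 Scores run from 0, meaning no effect, to 100, meaning complete control, and come from visual comparison with untreated controls. Treatment was a postemergence application to plants 2–18 cm tall. Assessment followed 13 to 15 days of greenhouse growth.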

wild oat (Avena fatua) = assay: as above; conditions: for Plant response rating, Oat, Wild: scale 0 to 100
Method in brief: as §3

[4] = test system: chickweed (common chickweed, Stellaria media); assay: as above; conditions: for Plant response rating, Chickweed: scale 0 to 100
Method in brief: as §3

[5] = test system: giant foxtail (Setaria faberii); assay: Test A pre-/postemergence greenhouse herbicide test, visual injury rating 0-100
Method in brief: (§4)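 Planting in a loam and sand mixture preceded a directed preemergence soil spray; postemergence spray was applied concurrently to one- to two-leaf plants. After roughly 10 days under glass, injury is scored visually against untreated controls, 0–100.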

[6] = test system: velvetleaf (Abutilon theophrasti); assay: as above
Method in brief: as §4

corn (Zea mays) = assay: as above
Method in brief: as §4

[7] = test system: barnyardgrass (Echinochloa crus-galli); assay: as above
Method in brief: as §4

[8] = test system: pigweed (Amaranthus retroflexus); assay: as above
Method in brief: as §4

[9] = test system: large (Lg) crabgrass (Digitaria sanguinalis); assay: as above
Method in brief: as §4

[10] = test system: morningglory (Ipomoea spp.); assay: as above
Method in brief: as §4

[11] = test system: wheat (Triticum aestivum); assay: as above
Method in brief: as §4

[12] = Postemergence, 250 g ai/ha, scale 0 to 100
[13] = Postemergence, 500 g ai/ha, scale 0 to 100

O=C(c1ccccc1)c1cn(S(=O)(=O)CC(F)(F)F)nc1-c1cc(Cl)cc(Cl)c1 [Compound 3]
Plant response rating (0 to 100), Foxtail, Giant ([1]; Postemergence, 62 g ai/ha): 0
Plant response rating (0 to 100), Foxtail, Giant ([1]; Postemergence, 125 g ai/ha): 0
Plant response rating, Foxtail, Giant [1, 12]: 0
Plant response rating, Foxtail, Giant [1, 13]: 0
Plant response rating, Foxtail, Giant ([1]; Preemergence, 62 g ai/ha): 0
Plant response rating, Foxtail, Giant ([1]; Preemergence, 125 g ai/ha): 0
Plant response rating, Foxtail, Giant ([1]; Preemergence, 250 g ai/ha): 0
Plant response rating, Foxtail, Giant ([1]; Preemergence, 500 g ai/ha): 0
Plant response rating (0 to 100), Johnsongrass ([2]; Postemergence, 62 g ai/ha): 0
Plant response rating (0 to 100), Johnsongrass ([2]; Postemergence, 125 g ai/ha): 0
Plant response rating, Johnsongrass [2, 12]: 0
Plant response rating, Johnsongrass [2, 13]: 0
Plant response rating, Johnsongrass ([2]; Preemergence, 62 g ai/ha): 0
Plant response rating, Johnsongrass ([2]; Preemergence, 125 g ai/ha): 0
Plant response rating, Johnsongrass ([2]; Preemergence, 250 g ai/ha): 0
Plant response rating, Johnsongrass ([2]; Preemergence, 500 g ai/ha): 0
Plant response rating (0 to 100), Wheat ([3]; Postemergence, 62 g ai/ha): 0
Plant response rating (0 to 100), Wheat ([3]; Postemergence, 125 g ai/ha): 0
Plant response rating, Wheat [3, 12]: 0
Plant response rating, Wheat [3, 13]: 0
Plant response rating, Wheat ([3]; Preemergence, 62 g ai/ha): 0
Plant response rating, Wheat ([3]; Preemergence, 125 g ai/ha): 0
Plant response rating, Wheat ([3]; Preemergence, 250 g ai/ha): 0
Plant response rating, Wheat ([3]; Preemergence, 500 g ai/ha): 0
Plant response rating, Wheat ([3]; Preemergence, 0 to 100 scale (0 no effect, 100 complete control), rate 500 g ai/ha): 0
Plant response rating (0 to 100), Kochia (kochia (Kochia scoparia); 62 g ai/ha): 80
Plant response rating (0 to 100), Kochia (kochia (Kochia scoparia); 125 g ai/ha): 85
Plant response rating, Kochia (kochia (Kochia scoparia); 250 g ai/ha): 85
Plant response rating, Kochia (kochia (Kochia scoparia); 500 g ai/ha): 85
Plant response rating (0 to 100), Oat, Wild (wild oat (Avena fatua); 62 g ai/ha): 0
Plant response rating (0 to 100), Oat, Wild (wild oat (Avena fatua); 125 g ai/ha): 0
Plant response rating, Oat, Wild (wild oat (Avena fatua); 250 g ai/ha): 0
Plant response rating, Oat, Wild (wild oat (Avena fatua); 500 g ai/ha): 0
Plant response rating (0 to 100), Chickweed ([4]; 62 g ai/ha): 100
Plant response rating (0 to 100), Chickweed ([4]; 125 g ai/ha): 100
Plant response rating, Chickweed ([4]; 250 g ai/ha): 100
Plant response rating, Chickweed ([4]; 500 g ai/ha): 100
Plant response rating (0 to 100 scale), Foxtail, Giant ([5]; Postemergence, 125 g ai/ha): 0
Plant response rating (0 to 100 scale), Foxtail, Giant ([5]; Postemergence, 500 g ai/ha): 0
Foxtail, Giant plant response rating (0 = no effect, 100 = complete control) ([5]; Preemergence, 125 g ai/ha): 0
Plant response rating (0 to 100 scale), Foxtail, Giant ([5]; Preemergence, 500 g ai/ha): 0
Plant response rating (0 to 100 scale), Velvetleaf ([6]; Postemergence, 125 g ai/ha): 90
Plant response rating (0 to 100 scale), Velvetleaf ([6]; Postemergence, 500 g ai/ha): 100
Velvetleaf plant response rating (0 = no effect, 100 = complete control) ([6]; Preemergence, 125 g ai/ha): 0
Plant response rating (0 to 100 scale), Velvetleaf ([6]; Preemergence, 500 g ai/ha): 50
Plant response rating (0 to 100 scale), Corn (corn (Zea mays); Postemergence, 125 g ai/ha): 0
Plant response rating (0 to 100 scale), Corn (corn (Zea mays); Postemergence, 500 g ai/ha): 0
Corn plant response rating (0 = no effect, 100 = complete control) (corn (Zea mays); Preemergence, 125 g ai/ha): 0
Plant response rating (0 to 100 scale), Corn (corn (Zea mays); Preemergence, 500 g ai/ha): 0
Plant response rating (0 to 100 scale), Barnyardgrass ([7]; Postemergence, 125 g ai/ha): 0
Plant response rating (0 to 100 scale), Barnyardgrass ([7]; Postemergence, 500 g ai/ha): 0
Barnyardgrass plant response rating (0 = no effect, 100 = complete control) ([7]; Preemergence, 125 g ai/ha): 0
Plant response rating (0 to 100 scale), Barnyardgrass ([7]; Preemergence, 500 g ai/ha): 0
Plant response rating (0 to 100 scale), Pigweed ([8]; Postemergence, 125 g ai/ha): 80
Plant response rating (0 to 100 scale), Pigweed ([8]; Postemergence, 500 g ai/ha): 100
Pigweed plant response rating (0 = no effect, 100 = complete control) ([8]; Preemergence, 125 g ai/ha): 60
Plant response rating (0 to 100 scale), Pigweed ([8]; Preemergence, 500 g ai/ha): 80
Plant response rating (0 to 100 scale), Crabgrass, Large ([9]; Postemergence, 125 g ai/ha): 0
Plant response rating (0 to 100 scale), Crabgrass, Large ([9]; Postemergence, 500 g ai/ha): 0
Crabgrass, Large plant response rating (0 = no effect, 100 = complete control) ([9]; Preemergence, 125 g ai/ha): 0
Plant response rating (0 to 100 scale), Crabgrass, Large ([9]; Preemergence, 500 g ai/ha): 0
Plant response rating (0 to 100 scale), Morningglory ([10]; Postemergence, 125 g ai/ha): 0
Plant response rating (0 to 100 scale), Morningglory ([10]; Postemergence, 500 g ai/ha): 0
Morningglory plant response rating (0 = no effect, 100 = complete control) ([10]; Preemergence, 125 g ai/ha): 0
Plant response rating (0 to 100 scale), Morningglory ([10]; Preemergence, 500 g ai/ha): 0
Plant response rating (0 to 100 scale), Wheat ([11]; Postemergence, 125 g ai/ha): 0
Plant response rating (0 to 100 scale), Wheat ([11]; Postemergence, 500 g ai/ha): 0
Wheat plant response rating (0 = no effect, 100 = complete control) ([11]; Preemergence, 125 g ai/ha): 0
Plant response rating (0 to 100 scale), Wheat ([11]; Preemergence, 500 g ai/ha): 0

Cn1cc(C(=NN2CCCC2)c2ccccc2)c(-c2cc(Cl)c(Cl)c(Cl)c2)n1 [Compound 25]
Plant response rating (0 to 100), Foxtail, Giant ([1]; Postemergence, 31 g ai/ha): 0
Plant response rating (0 to 100), Foxtail, Giant ([1]; Postemergence, 62 g ai/ha): 0
Plant response rating (0 to 100), Foxtail, Giant ([1]; Postemergence, 125 g ai/ha): 0
Plant response rating, Foxtail, Giant [1, 12]: 0
Plant response rating (0 to 100), Johnsongrass ([2]; Postemergence, 62 g ai/ha): 0
Plant response rating (0 to 100), Johnsongrass ([2]; Postemergence, 125 g ai/ha): 0
Plant response rating, Johnsongrass [2, 12]: 0
Plant response rating (0 to 100), Wheat ([3]; Postemergence, 62 g ai/ha): 0
Plant response rating (0 to 100), Wheat ([3]; Postemergence, 125 g ai/ha): 0
Plant response rating, Wheat [3, 12]: 0
Plant response rating (0 to 100), Kochia (kochia (Kochia scoparia); 62 g ai/ha): 0
Plant response rating (0 to 100), Kochia (kochia (Kochia scoparia); 125 g ai/ha): 15
Plant response rating, Kochia (kochia (Kochia scoparia); 250 g ai/ha): 15
Plant response rating (0 to 100), Oat, Wild (wild oat (Avena fatua); 62 g ai/ha): 0
Plant response rating (0 to 100), Oat, Wild (wild oat (Avena fatua); 125 g ai/ha): 0
Plant response rating, Oat, Wild (wild oat (Avena fatua); 250 g ai/ha): 10
Plant response rating (0 to 100), Chickweed ([4]; 31 g ai/ha): 10
Plant response rating (0 to 100), Chickweed ([4]; 62 g ai/ha): 75
Plant response rating (0 to 100), Chickweed ([4]; 125 g ai/ha): 75
Plant response rating, Chickweed ([4]; 250 g ai/ha): 75
Plant response rating (0 to 100 scale), Foxtail, Giant ([5]; Postemergence, 1000 g ai/ha): 0
Plant response rating (0 to 100 scale), Foxtail, Giant ([5]; Preemergence, 1000 g ai/ha): 0
Plant response rating (0 to 100 scale), Velvetleaf ([6]; Postemergence, 1000 g ai/ha): 80
Plant response rating (0 to 100 scale), Velvetleaf ([6]; Preemergence, 1000 g ai/ha): 20
Plant response rating (0 to 100 scale), Corn (corn (Zea mays); Postemergence, 1000 g ai/ha): 0
Plant response rating (0 to 100 scale), Corn (corn (Zea mays); Preemergence, 1000 g ai/ha): 0
Plant response rating (0 to 100 scale), Barnyardgrass ([7]; Postemergence, 1000 g ai/ha): 0
Plant response rating (0 to 100 scale), Barnyardgrass ([7]; Preemergence, 1000 g ai/ha): 0
Plant response rating (0 to 100 scale), Pigweed ([8]; Postemergence, 1000 g ai/ha): 90
Plant response rating (0 to 100 scale), Pigweed ([8]; Preemergence, 1000 g ai/ha): 90
Plant response rating (0 to 100 scale), Crabgrass, Large ([9]; Postemergence, 1000 g ai/ha): 0
Plant response rating (0 to 100 scale), Crabgrass, Large ([9]; Preemergence, 1000 g ai/ha): 0
Plant response rating (0 to 100 scale), Morningglory ([10]; Postemergence, 1000 g ai/ha): 0
Plant response rating (0 to 100 scale), Morningglory ([10]; Preemergence, 1000 g ai/ha): 0
Plant response rating (0 to 100 scale), Wheat ([11]; Postemergence, 1000 g ai/ha): 0
Plant response rating (0 to 100 scale), Wheat ([11]; Preemergence, 1000 g ai/ha): 0
